Source: US20170333390A1, “PHYTOCHEMICAL COMPOSITIONS INCLUDING SESAMIN FOR ANTI-INFLAMMATORY, ANTI-CYTOKINE STORM, AND OTHER USES” (CHIANG MAI UNIVERSITY, priority 2009, published 2017)

System: IL-1 released by LPS induced peripheral blood mononuclear cells (PBMCs)
Assay: Quantity of IL-1 released by LPS induced PBMCs (ELISA)
Format: cell-based
Conditions: LPS 20 ng/ml
Protocol: Experiments were conducted to evaluate the effect of particular phytochemical compositions provided by the present disclosure on quantity of IL-1 released by specified cells found within a body of a living organism. Cells used for the experiment described in this example are LPS induced peripheral blood mononuclear cells (PBMCs). It is understood by a person of ordinary skill in the art that the PBMCs may be substituted for other immune cells found within the body. It is also understood by a person having ordinary skill in the art that other inducing substances or chemicals besides LPS, for example viral antigens, may also be used for inducing the PBMCs.
To conduct the experiments of example two, PBMCs were isolated and prepared using isolation techniques or methods known to a person of ordinary skill in the art. An exemplary method or technique is the differential density gradient centrifugation technique, the steps or process steps of which are known to a person of ordinary skill in the art. In addition, LPS can be obtained from a commercial source, for example Sigma-Aldrich Co.
The PBMCs are cultured in 10% fetal calf serum in RPMI1640 medium. Seven cultures of PBMCs, i.e. culture 1 to culture 7, were prepared. The contents of each of cultures 1 to 7 are as follows: • (i) Culture 1: First control culture. Includes a predetermined volume of PBMCs (1×10^5 PBMCs/culture); • (ii) Culture 2: Second control culture. […]
After a predetermined time period, quantity of IL-1 in each of cultures 1 to 7 was quantified using the ELISA technique (e.g., Biotrak Easy ELISA Aersham). The quantity of IL-1 detected by the ELISA technique in each of cultures 1 to 7 reflects the quantity of IL-1 released by the PBMCs of that culture.

c1cc2c(cc1[C@H]1OC[C@H]3[C@@H]1CO[C@@H]3c1ccc3c(c1)OCO3)OCO2 [sesamin]
decrease in quantity of IL-1 (0.1 uM sesamin (culture 3), compared to control culture 1, 24 hours): approximately 5%
decrease in quantity of IL-1 (0.5 uM sesamin (culture 4), compared to control culture 1, 24 hours): approximately 5%
decrease in quantity of IL-1 (10 uM sesamin (culture 7), compared to control culture 2, 24 hours): approximately 35%
